Like-named read-outs stand apart in the source and are kept apart here. Each block holds one compound with its values, some of them ahead of it.
Tests used:
[1] = test system: empty vector-transformed leaf discs; test: PSII yield inhibition in tobacco leaf discs (imaging PAM chlorophyll fluorescence); type: cell-based; conditions: Nicotiana benthamiana, read-out: IC50 of PSII yield inhibition
Excerpt: Transient expression of mutated PPO sequences as wildtype or with respective mutations were done as described previously (Voinnet O., et al., 2003, The Plant Journal 33, 949-956). In brief, cloning of GOI and Agrobacterium transformation (strain: GV2260) were done as described in EXAMPLE 5. Young leaves of Nicotiana benthamiana were infiltrated with transgenic Agrobacterium suspension (OD^600 of 1.0) harboring binary vector constructs containing a GO/gene controlled by a promoter and terminator sequence. 48 h to 72 h after infiltration punches of leave discs (0.75 cm in diameter) were transferred to 6-well plates with medium (half strength Linsmaier-Skoog (Linsmaier and Skoog (1965) Physiol. Plant. 18: 100-127) nutrient solution or water) containing herbicide of interest in different concentrations. […]
Leaf discs, generated as described in EXAMPLE 14, expressing a protein encoded by GOI, were subjected to analysis on improved tolerance to herbicide treatment. For analysis of herbicide damage, chlorophyll fluorescence were identified as indicative marker (Dayan and Zaccaro (2012) Pest. Biochem. Physiol. 102: 189-197). […] PSII yield were measured as per manufacturer instructions.
Tolerance factors were calculated based on IC50 values of PSII yield inhibition of transformed versus empty vector-transformed leaf discs.

[2] = test system: non-transgenic (MC-24) Arabidopsis; test: Germination assay, ARBTH germinating in medium containing selection agent (48-well plates); type: in vivo, Arabidopsis thaliana
Method: Transgenic Arabidopsis thaliana plants are assayed for improved tolerance to saflufenacil, 1,5-dimethyl-6-thioxo-3-(2,2,7-trifluoro-3-oxo-4-(prop-2-ynyl)-3,4-dihydro-2H-benzo[b][1,4]oxazin-6-yl)-1,3,5-triazinane-2,4-dione (CAS 1258836-72-4/trifludimoxazin), flumioxazin, butafenacil, acifluorfen, lactofen, bifenox, sulfentrazone, and photosynthesis inhibitor diuron as negative control in 48-well plates. Therefore, T2 seeds are surface sterilized by stirring for 5 min in ethanol+water (70+30 by volume), rinsing one time with ethanol+water (70+30 by volume) and two times with sterile, deionized water. […] Growth inhibition is evaluated seven to ten days after seeding in comparison to wild type plants.
Transgenic Arabidopsis thaliana plants are assayed for improved tolerance to saflufenacil, 1,5-dimethyl-6-thioxo-3-(2,2,7-trifluoro-3-oxo-4-(prop-2-ynyl)-3,4-dihydro-2H-benzo[b][1,4]oxazin-6-yl)-1,3,5-triazinane-2,4-dione (CAS 1258836-72-4/trifludimoxazin), flumioxazin, butafenacil, acifluorfen, lactofen, bifenox, sulfentrazone, and photosynthesis inhibitor diuron as negative control, in 48-well plates. […] Growth inhibition was evaluated seven to ten days after seeding in comparison to wild type plants. […]

[3] = test system: transgenic Arabidopsis AMATU_PPO2_G211A_F420M; test: Germination assay, transgenic ARBTH germinating in medium containing selection agent (48-well plates); type: in vivo, Arabidopsis thaliana; conditions: for IC50: Arabidopsis thaliana
Method: (§1) Transgenic Arabidopsis thaliana plants are assayed for improved tolerance to saflufenacil, 1,5-dimethyl-6-thioxo-3-(2,2,7-trifluoro-3-oxo-4-(prop-2-ynyl)-3,4-dihydro-2H-benzo[b][1,4]oxazin-6-yl)-1,3,5-triazinane-2,4-dione (CAS 1258836-72-4/trifludimoxazin), flumioxazin, butafenacil, acifluorfen, lactofen, bifenox, sulfentrazone, and photosynthesis inhibitor diuron as negative control in 48-well plates. Therefore, T2 seeds are surface sterilized by stirring for 5 min in ethanol+water (70+30 by volume), rinsing one time with ethanol+water (70+30 by volume) and two times with sterile, deionized water. The seeds are resuspended in 0.1% agar dissolved in water (w/v) Four to five seeds per well are plated on solid nutrient medium consisting of half-strength murashige skoog nutrient solution, pH 5.8 (Murashige and Skoog (1962) Physiologia Plantarum 15: 473-497). Compounds are dissolved in dimethylsulfoxid (DMSO) and added to the medium prior solidification (final DMSO concentration 0.1%). Multi well plates are incubated in a growth chamber at 22° C., 75% relative humidity and 110 μmol Phot*m^−2*s^−1 with 14: 10 h light: dark photoperiod. Growth inhibition is evaluated seven to ten days after seeding in comparison to wild type plants.
as §1, with “negative control,” for “negative control”, “inhibition was” for “inhibition is”, “plants. Additionally, transgenic T1 Arabidopsis plants were tested for improved tolerance to herbicides in greenhouse studies with the following herbicides: saflufenacil, 1,5-dimethyl-6-thioxo-3-(2,2,7-trifluoro-3-oxo-4-(prop-2-ynyl)-3,4-dihydro-2H-benzo[b][1,4]oxazin-6-yl)-1,3,5-triazinane-2,4-dione (CAS 1258836-72-4/trifludimoxazin), flumioxazin, butafenacil, acifluorfen, lactofen, bifenox, sulfentrazone, and photosynthesis inhibitor diuron as negative control.” for “plants.”

[4] = test system: transgenic Arabidopsis AMATU_PPO2_wild_type; test: as above; type: in vivo, Arabidopsis thaliana
Method: as §1
as §1, with “negative control,” for “negative control”, “inhibition was” for “inhibition is”, “plants. Additionally, transgenic T1 Arabidopsis plants were tested for improved tolerance to herbicides in greenhouse studies with the following herbicides: saflufenacil, 1,5-dimethyl-6-thioxo-3-(2,2,7-trifluoro-3-oxo-4-(prop-2-ynyl)-3,4-dihydro-2H-benzo[b][1,4]oxazin-6-yl)-1,3,5-triazinane-2,4-dione (CAS 1258836-72-4/trifludimoxazin), flumioxazin, butafenacil, acifluorfen, lactofen, bifenox, sulfentrazone, and photosynthesis inhibitor diuron as negative control.” for “plants.”

IC50 ([1]; empty vector-transformed leaf discs, treated for 48 h): 0.011 µM
Structure (SMILES): C#CCN1C(=O)C(F)(F)Oc2cc(F)c(-n3c(=O)n(C)c(=S)n(C)c3=O)cc21 [1,5-dimethyl-6-thioxo-3-(2,2,7-trifluoro-3-oxo-4-(prop-2-ynyl)-3,4-dihydro-2H-benzo[b][1,4]oxazin-6-yl)-1,3,5-triazinane-2,4-dione]

Structure (SMILES): CC(C)N(C)S(=O)(=O)NC(=O)c1cc(-n2c(=O)cc(C(F)(F)F)n(C)c2=O)c(F)cc1Cl [Saflufenacil]
Tolerance Factor (non transgeneic = 1.0) [2]: 1
IC50 ([2]; Arabidopsis thaliana): 0.025 µM
IC50 ([3]; Event D): 25 µM
IC50 ([3]; Event M): 25 µM
IC50 ([3]; Event P): 7.5 µM
IC50 ([3]; Event Q): 7.5 µM
IC50 ([3]; Event R): 7.5 µM
Tolerance Factor (non transgeneic = 1.0) ([3]; Event D): 1000
Tolerance Factor (non transgeneic = 1.0) ([3]; Event M): 1000
Tolerance Factor (non transgeneic = 1.0) ([3]; Event P): 300
Tolerance Factor (non transgeneic = 1.0) ([3]; Event Q): 300
Tolerance Factor (non transgeneic = 1.0) ([3]; Event R): 300
Tolerance Factor (non transgeneic = 1.0) [4]: 10
IC50 ([4]; Arabidopsis thaliana): 0.106 µM
IC50 ([1]; 48 h): 0.11 µM

Source: patent US11879132B2, “Plants having increased tolerance to herbicides” (BASF AGRO B.V., priority 2016, dated 2024)
